From patent US11766413B2 (Nacuity Pharmaceuticals, Inc., priority 2019, dated 2023)
“Also recorded” adds a separate entry of the source.

How the values were obtained:
[1] = Evaluation of retinal penetration of NACA: NACA and NAC levels in plasma, aqueous, vitreous and retina after NACA in drinking water; assay type: in vivo, mice (rd10/rd10 and wild type C57/BL6); conditions: for concentration at 7 days: mouse, retina, oral, 20 mg/mL in drinking water, 20 mg/mL NACA in drinking water, P28 to P35, estimated dose 60-80 mg/day; for mean levels in the retina compared with plasma / measurability in the retina: animals treated with NACA; for measurability in the retina: N=20 eyes per strain; for measurements in aqueous, vitreous and retina: nearly all measurements, limit of quantification of the assay
Protocol: Animals and Treatments. Mice were treated in accordance with the recommendations of the Association for Research in Vision and Ophthalmology. Litters of homozygous rd10/rd10 mice (B6.CXB1-Pde6brd10/J) and wild type C57/BL6 mice (The Jackson Laboratory, Bar Harbor, Me.) were used for these studies.
Starting on post-natal day 28 (P28), animals were given normal drinking water (n=10 for each strain) or water containing 20 mg/ml NACA (n=10 for each strain).
Analysis of NACA and NAC. Upon sacrifice of the mice on P35, retina, aqueous, vitreous and plasma were collected, weighed, and stabilized as quickly as possible and stored at −80° C. prior to shipment to AIT Bioscience, LLC (Indianapolis, Ind.). The bioanalytical method (BAM.0445.01) for the quantitation of total NAC NACA in K2EDTA was based on derivatization, protein precipitation extraction, and LC-MS/MS instrumental analysis. Any disulfides were reduced to free thiols and subsequently reacted with 2-chloro-1-methylpyridinium iodide (CMPI) to form stable thioethers. The thioether derivatives were detected by LC-MS/MS. Stable label isotope internal standards were used. The method covered a concentration range from 50.0 to 50,000 ng/mL. The thiol moiety of NAC, NACA, and their respective internal standards oxidizes quickly in plasma through formation of disulfides. In order to determine total NAC and total NACA levels in plasma, tris(2-carboxyethyl)phosphine (TCEP) is added during the extraction to reduce disulfide bonds. Ammonium bicarbonate is added to control sample pH near neutral, as TCEP will otherwise acidify the aliquoted samples and hinder derivatization. The free analyte is then derivatized to a stable thioether using 2-chloro-1-methylpyridinium iodide (CMPI). N-acetyl-L-cysteine is used as the reference standard. The assay would not discern the enantiomer, N-acetyl-D-cysteine, if present. A sample volume of 25.0 μL was aliquotted into a 1.2 mL 96-well plate to which was added, in sequence, 25.0 μL internal standard solution (1000 ng/mL NAC-D3 and 1000 ng/mL NACA-D3 in water), 50.0 μL of ammonium bicarbonate (100 mM), 5.0 μL CMPI (60 mM in water), and 5.0 μL of TCEP (60 mM in water). Samples were allowed to react for 30 minutes. To precipitate proteins, 500 μL of acetonitrile was then added to all samples. The plate was covered and the mixtures were shaken and centrifuged. A 50.0 μL aliquot of the supernatant was transferred from each well to a clean plate containing 400 μL of water-acetonitrile (25-75) in each well, and mixed well prior to LC-MS injection.
Samples were analyzed on a Waters Acquity liquid chromatograph interfaced with a Thermo Scientific TSQ Vantage triple quadrupole mass spectrometer with ESI ionization. Each extracted sample was injected (5.0 μL) onto a Waters BEH HILIC column (2.1×100 mm; 1.7 μm) equilibrated at 35° C. Mobile Phase A was ammonium formate (25 mM, pH 3.8). Mobile Phase B was acetonitrile. The LC gradient is tabled below: […]
Peak area ratios from the calibration standard responses were regressed using a (1/concentration^2) linear fit for N-Acetyl-L-Cysteine and N-Acetylcysteine amide.
Evaluation of Retinal Penetration of NACA. To determine retinal levels of NACA/NAC after administration of 20 mg/mL NACA in drinking water for 7 days. This experiment will provide rapid confirmation that NACA and/or NAC penetrate the retina following oral administration. This experiment will also evaluate if the breakdown in the blood-retinal barrier in RP affects the levels of NACA in the retina by comparing animals with RP to wild type mice.
Rd10 and C57BL/6 wild type mice will begin treatment at P28 and at P35 mice will be euthanized and plasma, vitreous and retina samples will be sent to AITB for determination of NAC and NACA levels. Experimental groups: (n=10/group). The research was performed in 3 discrete experiments: […]

diabetic rats = conditions: cited from earlier work
[2] = humans, oral dose of 600 mg; cited from earlier work
[3] = molecular target: T1, glutamate cysteine ligase (GCL, EC 6.3.2.2) (Homo sapiens, UniProt P48506); conditions: substrate of GCL; read-out: apparent Km; cited from earlier work
T1 sequence (P48506 1-637): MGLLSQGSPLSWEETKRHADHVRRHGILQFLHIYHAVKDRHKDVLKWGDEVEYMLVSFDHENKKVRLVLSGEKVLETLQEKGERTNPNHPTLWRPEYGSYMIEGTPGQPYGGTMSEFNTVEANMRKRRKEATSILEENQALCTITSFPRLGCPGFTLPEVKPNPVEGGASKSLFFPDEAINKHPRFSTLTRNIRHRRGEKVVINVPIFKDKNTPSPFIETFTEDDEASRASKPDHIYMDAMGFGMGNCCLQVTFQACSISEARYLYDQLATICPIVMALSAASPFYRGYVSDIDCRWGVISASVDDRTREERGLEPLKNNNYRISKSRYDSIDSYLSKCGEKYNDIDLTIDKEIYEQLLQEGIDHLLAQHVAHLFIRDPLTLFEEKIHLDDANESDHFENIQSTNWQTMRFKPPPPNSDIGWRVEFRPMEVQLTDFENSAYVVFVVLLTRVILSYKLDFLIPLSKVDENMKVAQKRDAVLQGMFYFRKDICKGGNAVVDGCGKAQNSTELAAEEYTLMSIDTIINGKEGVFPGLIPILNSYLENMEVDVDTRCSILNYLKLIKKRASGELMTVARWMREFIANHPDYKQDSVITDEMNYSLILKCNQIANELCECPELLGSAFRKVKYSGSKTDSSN
T1 sequence (P48507 1-274 partner): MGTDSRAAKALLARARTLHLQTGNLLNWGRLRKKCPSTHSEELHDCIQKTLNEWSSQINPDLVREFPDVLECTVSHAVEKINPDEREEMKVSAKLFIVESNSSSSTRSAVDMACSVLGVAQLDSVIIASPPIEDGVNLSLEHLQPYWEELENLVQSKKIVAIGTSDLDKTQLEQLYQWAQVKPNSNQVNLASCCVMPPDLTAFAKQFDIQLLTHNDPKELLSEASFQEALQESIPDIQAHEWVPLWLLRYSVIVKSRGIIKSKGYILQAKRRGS

[4] = 20 mg/ml NACA in drinking water

Structure (SMILES)	mean levels in aqueous humor compared with plasma [1, 4]	mean levels in plasma, rd10 compared with wild type [1, 4]	concentration at 7 days ([1]; C57/BL6 (wild type), wild type mice)	mean concentration in the aqueous humor, rd10 compared with wild type ([1]; N=8 eyes rd10, N=10 C57/B16)	mean levels in the retina compared with plasma [1]	measurability in the retina [1]	mean NACA levels in plasma compared with NAC levels ([1]; both strains, 20 mg/ml NACA in drinking water, N=10 per strain)	measurements in aqueous, vitreous and retina [1]	ratio of NACA:NAC in the retina, rd10 compared with C57/B16 ([1]; oral NACA 20 mg/mL in drinking water)	concentration at 7 days ([1]; rd10/rd10 (B6.CXB1-Pde6brd10/J), rd10 mice)	expression of VEGF and ICAM-1 (diabetic rats; after 5-month treatment)	up-regulation of VEGF and ICAM-1 expression in retinal blood vessels (diabetic rats)	reactive oxygen species contents in the retinas (diabetic rats; most significantly at 5 months)	retinal pathological changes (electron and light microscopy) (diabetic rats; sacrificed at 3 and 5 months)	time after administration at which no NAC is detectable [2]	Km [3]
CC(=O)N[C@@H](CS)C(N)=O	lower than in plasma	greater in rd10 mice than in the wild type	~2400 ng/g	higher in rd10 mice than wild type	higher than those observed in plasma	measurable in all animals	greater than the NAC levels	BLQ	penetrated retina to a greater extent in rd10 mice than in C57/B16 mice; also recorded: greater in the retina of rd10 mice than in C57/B16 mice	~6500 ng/g						
CC(=O)N[C@@H](CS)C(=O)O [NAC, N-acetyl-L-cysteine, reference compound]	lower than in plasma	greater in rd10 mice than in the wild type			higher than those observed in plasma	measurable in all animals		BLQ			returned to basal levels	attenuated	decreased reactive oxygen species	alleviated the pathological changes	10 to 12 h	
N[C@@H](CS)C(=O)O [cysteine, L-cysteine]																100 to 300 µM
